In patent US11846630B2, “Coordinately-ordered single cells with individual identities for high-throughput assay” (Northeastern University, priority 2019, dated 2023):

Tests used:
HeLa cells = test: ROS assay (CellROX Orange) on coordinated single cell pattern; conditions: 1 μM doxorubicin for 6 hours
OT-1 cells = test: Microwell ELISA immunoassay of interferon-γ secreted by peptide-stimulated OT-1 cells; type: cell-based; conditions: OVA peptide concentration 0.5, 1, 2, 4, 8 μg/mL; FIG. 12, panel C
Description: Surface of the microwells can be chemically modified with capture agents, such as antibodies, to detect cytokines secreted by T cells during the T cell-cancer cells interaction. […] The cytokine detection is based on ELISA sandwich structure and quantified based on the fluorescence intensity of Avidin Texas red. Due to the existence of BSA on the top layer, the majority of antibodies were only absorbed on the inner surface of the microwells (bottom and inside wall of microwell), which enhanced capturing signals and reduced background. The location of the capture antibody after BSA saturation was indicated using Rhodamine-BSA and FITC-Antibody and shown in FIG. 11, panel B, in which BSA only covered the top layer of microwell and the green fluorescent capture antibody was mainly present inside the microwells after BSA saturation, enhancing the signals from the microwells. The fluorescence images of interferon-γ at two concentrations are shown in FIG. 11, panel C, and the standard curve of fluorescence versus interferon-γ concentration is presented in FIG. 11, panel D. According to the standard curve, imaged-based ELISA using the microwells detected a wide range of the cytokine concentrations from 0.1 ng/mL to 5 ng/mL, and the concentrations determined based on fluorescence intensity ranged from 0.8×10^5 to 2.7×10^5. […]

Molecule	ROS orange signal intensity after subsequent X-ray exposure (HeLa cells; then X-ray 10.8 Gy, compared with doxorubicin alone)	ROS orange signal (HeLa cells; identical cell analysis, FIG. 3)	intensity of the interferon-γ fluorescence (OT-1 cells)
COc1cccc2c1C(=O)c1c(O)c3c(c(O)c1C2=O)C[C@@](O)(C(=O)CO)C[C@@H]3O[C@H]1C[C@H](N)[C@H](O)[C@H](C)O1 [doxorubicin]	much higher level of damage than that of doxorubicin alone	increases	
SINFEKL [OVA peptide, OVA peptide (SINFEKL) used to stimulate OT-1 cells to secrete cytokines]			increased
